Data published in ChEMBL document CHEMBL5260828, “Amphiphilic glycoconjugates as potential anti-cancer chemotherapeutics” (Eur J Med Chem, 2018).
pIC50: −log10 of the molar value. Converted amounts (≈) assume the structure as drawn.

Assays:
A549 = experiment: Cytotoxicity against human A549 cells incubated for 72 hrs by MTT assay; type: functional, cell-based; conditions: A549, 72 h
P388 = experiment: Cytotoxicity against mouse P388 cells; type: functional, cell-based; conditions: Mus musculus, P388; read-out: IC50
KB = experiment: Cytotoxicity against human KB cells assessed as inhibition of cell growth by measuring effective dose; type: functional; conditions: read-out: ED50 (the source's name)
DU-145 = experiment: Cytotoxicity against human DU-145 cells assessed as reduction in cell viability incubated for 48 hrs by MTS assay; type: functional, cell-based; conditions: DU-145, time 48 hrs
JIMT-1 = experiment: Cytotoxicity against human JIMT-1 cells assessed as reduction in cell viability incubated for 48 hrs by MTS assay; type: functional, cell-based; conditions: JIMT-1, time 48 hrs
MIA PaCa-2 = experiment: Cytotoxicity against human MIA PaCa-2 cells assessed as reduction in cell viability incubated for 48 hrs by MTS assay; type: functional, cell-based; conditions: MIA PaCa-2, time 48 hrs
PC-3 = experiment: Cytotoxicity against human PC-3 cells assessed as reduction in cell viability incubated for 48 hrs by MTS assay; type: functional, cell-based; conditions: PC-3, time 48 hrs
BT-474 = experiment: Cytotoxicity against human BT-474 cells assessed as reduction in cell viability incubated for 48 hrs by MTS assay; type: functional, cell-based; conditions: BT-474, time 48 hrs
K562 = experiment: Cytotoxicity against human K562 cells by colorimetric assay; type: functional, cell-based
HeLa S3 = experiment: Cytotoxicity against human HeLa S3 cells; type: functional, cell-based; conditions: Homo sapiens, HeLa S3; read-out: IC50

CCCCCCCCCCCCCC(=O)OCc1cn(C[C@H]2O[C@H](OC)[C@H](O)[C@@H](O)[C@H]2O)nn1
pIC50 (A549): 4.68

CO[C@@H]1[C@H](O[C@@H]2CO[C@@H](O[C@@H]3[C@@H](O)[C@H](O)CO[C@H]3N3C(=O)/C(=C(O)/C=C/C=C/C=C/C=C/C=C(Cl)/C=C/C=C/[C@H]4O[C@H](C)C[C@@H]4Cl)C(=O)[C@@H]3CC(N)=O)[C@@H](O)[C@@H]2O)O[C@H](C)[C@H]1O
IC50 (P388): 0.2 µg/mL (≈ 0.219 µM)

CCCCCCCCCCCCC(=O)OCc1cn(C[C@H]2O[C@H](OC)[C@H](O)[C@@H](O)[C@H]2O)nn1
pIC50 (A549): 4.68

CCCCC[C@H]1CCCCCCCCCC(=O)O[C@@H]2[C@@H](O[C@@H]3O[C@H](C)[C@@H](OC(=O)[C@@H](C)CC)[C@H](O)[C@H]3O)[C@H](C)O[C@@H](O[C@H]3[C@H](O[C@H]4[C@H](O1)O[C@H](C)[C@@H](O)[C@@H]4O)O[C@H](COC(=O)[C@@H](C)CC)[C@@H](O)[C@@H]3O)[C@@H]2OC(=O)[C@@H](C)[C@H](C)O [ORIZABIN XIX]
EC50 (KB): 1 µg/mL (≈ 0.89 µM)

C/C=C(\C)C(=O)O[C@H]1[C@H](O)[C@@H](O)[C@H](O[C@@H]2[C@H]3OC(=O)CCCCCCCCC[C@H](CCCCC)O[C@@H]4O[C@H](C)[C@@H](O)[C@H](O)[C@H]4O[C@@H]4O[C@H](COC(=O)C(C)C)[C@@H](O)[C@H](O)[C@H]4O[C@H](O[C@H]2C)[C@@H]3OC(=O)[C@@H](C)[C@H](C)O)O[C@@H]1C [ORIZABIN XI]
EC50 (KB): 1 µg/mL (≈ 0.903 µM)

CCCCCCCCCCCCCCCCOC[C@H](CO[C@@H]1O[C@@H](CO)[C@H](O)[C@@H](O)[C@@H]1O)OC
CC50 (DU-145): 12.5 µM | CC50 (JIMT-1): 6.5 µM | CC50 (MIA PaCa-2): 7.5 µM | CC50 (PC-3): 12.5 µM | CC50 (BT-474): 11 µM

C[C@@H]1C[C@H](Cl)[C@H](/C=C/C=C/C=C/C(Cl)=C/C=C/C=C/C=C/C=C/C(O)=C2\C(=O)[C@H](CC(N)=O)N([C@@H]3OC[C@@H](O)[C@H](O)[C@H]3O[C@@H]3OC[C@@H](O[C@@H]4O[C@H](C)[C@@H](O)[C@@H]4O)[C@@H](O)[C@@H]3O)C2=O)O1
IC50 (P388): > 5 µg/mL

CCCCC[C@H]1CCCCCCCCCC(=O)O[C@@H]2[C@@H](O[C@@H]3O[C@H](C)[C@@H](OC(=O)[C@@H](C)CC)[C@H](O)[C@H]3O)[C@H](C)O[C@@H](O[C@H]3[C@H](O[C@H]4[C@H](O1)O[C@H](C)[C@@H](O)[C@@H]4O)O[C@H](COC(=O)[C@@H](C)[C@H](C)O)[C@@H](O)[C@@H]3O)[C@@H]2OC(=O)[C@@H](C)CC [ORIZABIN XXI]
EC50 (KB): 1 µg/mL (≈ 0.89 µM)

CO[C@@H]1[C@H](O[C@@H]2CO[C@@H](O[C@@H]3[C@@H](O)[C@H](O)CO[C@H]3N3C(=O)/C(=C(O)/C=C/C=C/C=C/C=C/C=C(Cl)/C=C/C=C/C=C/[C@@H]4O[C@H](C)C[C@@H]4Cl)C(=O)[C@@H]3CC(N)=O)[C@@H](O)[C@@H]2O)O[C@H](C)[C@H]1O
IC50 (P388): 0.2 µg/mL (≈ 0.213 µM)

C/C=C(\C)C(=O)O[C@H]1[C@H](O)[C@@H](O)[C@H](O[C@@H]2[C@H]3OC(=O)CCCCCCCCC[C@H](CCCCC)O[C@@H]4O[C@H](C)[C@@H](O)[C@H](O)[C@H]4O[C@@H]4O[C@H](COC(=O)[C@@H](C)[C@H](C)O)[C@@H](O)[C@H](O)[C@H]4O[C@H](O[C@H]2C)[C@@H]3OC(=O)[C@@H](C)CC)O[C@@H]1C [ORIZABIN XVII]
EC50 (KB): 1 µg/mL (≈ 0.892 µM)

CCCCCCCCCCCCCCCCCCOCC(CO[C@@H]1O[C@H](CO)[C@@H](O[C@@H]2O[C@H](CO)[C@H](O)[C@H](O)[C@H]2O)[C@H](O)[C@H]1O)OCC (some centres not stated)
pIC50 (K562): 4.74

C/C=C(\C)C(=O)O[C@H]1[C@H](O)[C@@H](O)[C@H](O[C@@H]2[C@H]3OC(=O)CCCCCCCCC[C@H](CCCCC)O[C@@H]4O[C@H](C)[C@@H](O)[C@H](O)[C@H]4O[C@@H]4O[C@H](COC(=O)[C@@H](C)[C@H](C)O)[C@@H](O)[C@H](O)[C@H]4O[C@H](O[C@H]2C)[C@@H]3OC(=O)C(C)C)O[C@@H]1C [ORIZABIN XIII]
EC50 (KB): 1 µg/mL (≈ 0.903 µM)

CCCCCCCCCCCCCCCCCCOCC(COC(=O)NCCCO[C@@H]1O[C@H](CO)[C@H](O)[C@H](O)[C@H]1O)OCC (some centres not stated)
pIC50 (K562): 4.77

C/C=C(\C)C(=O)O[C@H]1[C@H](O)[C@@H](O)[C@H](O[C@@H]2[C@H]3OC(=O)CCCCCCCCC[C@H](CCCCC)O[C@@H]4O[C@H](C)[C@@H](O)[C@H](O)[C@H]4O[C@@H]4O[C@H](COC(=O)[C@H](C)[C@@H](C)O)[C@@H](O)[C@H](O)[C@H]4O[C@H](O[C@H]2C)[C@@H]3OC(=O)C(C)C)O[C@@H]1C [ORIZABIN XII]
EC50 (KB): 1 µg/mL (≈ 0.903 µM)

CCCCCCCCCCCCCCCCCCOCC(COC(=O)NCCCO[C@@H]1O[C@H](CO)[C@@H](O[C@@H]2O[C@H](CO)[C@H](O)[C@H](O)[C@H]2O)[C@H](O)[C@H]1O)OCC (some centres not stated)
pIC50 (K562): 5.15

CO[C@@H]1[C@H](O[C@@H]2CO[C@@H](O[C@@H]3[C@@H](O)[C@H](O)CO[C@H]3N3C(=O)/C(=C(O)/C=C/C=C/C=C/C=C/C=C(Cl)/C=C/C=C(\Cl)[C@H]4O[C@H](C)C[C@@H]4Cl)C(=O)[C@@H]3CC(N)=O)[C@@H](O)[C@@H]2O)O[C@H](C)[C@H]1O
IC50 (P388): 0.2 µg/mL (≈ 0.211 µM)

CO[C@@H]1[C@@H](OC(N)=O)[C@@H](OC)[C@H](O[C@@H]2C[C@H]3O[C@@](O)(C2)[C@H](C)C(=O)O[C@@H](/C=C/C=C/Br)C/C(C)=C/C(=O)C3(C)C)O[C@H]1C
IC50 (HeLa S3): 1.2 µg/mL (≈ 1.78 µM)

CO[C@@H]1[C@H](O[C@@H]2CO[C@@H](O[C@@H]3[C@@H](O)[C@H](O)CO[C@H]3N3C(=O)/C(=C(O)/C=C/C=C/C=C/C=C/C=C(Cl)/C=C/C=C/[C@@H]4O[C@H](C)C[C@@H]4Cl)C(=O)[C@@H]3CC(N)=O)[C@@H](O)[C@@H]2O)O[C@H](C)[C@H]1O
IC50 (P388): 0.05 µg/mL (≈ 0.0547 µM)

C/C=C(\C)C(=O)O[C@H]1[C@H](O)[C@@H](O)[C@H](O[C@@H]2[C@H]3OC(=O)CCCCCCCCC[C@H](CCCCC)O[C@@H]4O[C@H](C)[C@@H](O)[C@H](O)[C@H]4O[C@@H]4O[C@H](COC(=O)C(C)C)[C@@H](O)[C@H](O)[C@H]4O[C@H](O[C@H]2C)[C@@H]3OC(=O)[C@H](C)[C@@H](C)O)O[C@@H]1C [ORIZABIN X]
EC50 (KB): 1 µg/mL (≈ 0.903 µM)

CCCCCCCCCCCCCCCCOC[C@H](CN)O[C@@H]1O[C@@H](C)[C@H](O)[C@@H](O)[C@H]1O
CC50 (DU-145): 8.2 µM | CC50 (JIMT-1): 5.5 µM | CC50 (MIA PaCa-2): 8.5 µM | CC50 (PC-3): 11 µM

CCCCC[C@H]1CCCCCCCCCC(=O)O[C@@H]2[C@@H](O[C@@H]3O[C@H](C)[C@@H](OC(=O)[C@@H](C)CC)[C@H](O)[C@H]3O)[C@H](C)O[C@@H](O[C@H]3[C@H](O[C@H]4[C@H](O1)O[C@H](C)[C@@H](O)[C@@H]4O)O[C@H](COC(=O)[C@@H](C)CC)[C@@H](O)[C@@H]3O)[C@@H]2OC(=O)[C@H](C)[C@@H](C)O [ORIZABIN XVIII]
EC50 (KB): 1 µg/mL (≈ 0.89 µM)

C/C=C(\C)C(=O)O[C@H]1[C@H](O)[C@@H](O)[C@H](O[C@@H]2[C@H]3OC(=O)CCCCCCCCC[C@H](CCCCC)O[C@@H]4O[C@H](C)[C@@H](O)[C@H](O)[C@H]4O[C@@H]4O[C@H](COC(=O)[C@@H](C)CC)[C@@H](O)[C@H](O)[C@H]4O[C@H](O[C@H]2C)[C@@H]3OC(=O)[C@@H](C)[C@H](C)O)O[C@@H]1C [ORIZABIN XV]
EC50 (KB): 1 µg/mL (≈ 0.892 µM)

C[C@@H]1C[C@H](Cl)[C@@H](/C(Cl)=C/C=C/C(Cl)=C/C=C/C=C/C=C/C=C/C(O)=C2\C(=O)[C@H](CC(N)=O)N([C@@H]3OC[C@@H](O)[C@H](O)[C@H]3O[C@@H]3OC[C@@H](O[C@@H]4O[C@H](C)[C@@H](O)[C@@H]4O)[C@@H](O)[C@@H]3O)C2=O)O1
IC50 (P388): 0.2 µg/mL (≈ 0.214 µM)

CCCCCCCCCCCCCCCCCCOCC(COC(=O)NCCCO[C@H]1O[C@H](CO)[C@@H](O)[C@H](O)[C@@H]1O)OCC (some centres not stated)
pIC50 (K562): 4.74

CCCCCCCCCCCCCCCCCCOCC(CO[C@H]1O[C@H](CO)[C@@H](O)[C@H](O)[C@@H]1O)OCC (some centres not stated)
pIC50 (K562): 5.52

CO[C@@H]1[C@@H](O)[C@@H](OC)[C@H](O[C@@H]2[C@@H](OC)[C@H](C)O[C@@H](O[C@@H]3C[C@H]4O[C@@](O)(C3)[C@H](C)C(=O)O[C@@H](/C=C/C=C/Br)C/C(C)=C/C(=O)C4(C)C)[C@@H]2OC)O[C@H]1C
IC50 (HeLa S3): 0.17 µg/mL (≈ 0.211 µM)

C/C=C(\C)C(=O)O[C@H]1[C@H](O)[C@@H](O)[C@H](O[C@@H]2[C@H]3OC(=O)CCCCCCCCC[C@H](CCCCC)O[C@@H]4O[C@H](C)[C@@H](O)[C@H](O)[C@H]4O[C@@H]4O[C@H](COC(=O)[C@@H](C)CC)[C@@H](O)[C@H](O)[C@H]4O[C@H](O[C@H]2C)[C@@H]3OC(=O)[C@H](C)[C@@H](C)O)O[C@@H]1C [ORIZABIN XIV]
EC50 (KB): 1 µg/mL (≈ 0.892 µM)

CCCCCCCCCCCCCCCCCCOCC(CO[C@@H]1O[C@H](CO)[C@H](O)[C@H](O)[C@H]1O)OCC (some centres not stated)
pIC50 (K562): 5.60

C/C=C(\C)C(=O)O[C@H]1[C@H](O)[C@@H](O)[C@H](O[C@@H]2[C@H]3OC(=O)CCCCCCCCC[C@H](CCCCC)O[C@@H]4O[C@H](C)[C@@H](O)[C@H](O)[C@H]4O[C@@H]4O[C@H](COC(=O)[C@H](C)[C@@H](C)O)[C@@H](O)[C@H](O)[C@H]4O[C@H](O[C@H]2C)[C@@H]3OC(=O)[C@@H](C)CC)O[C@@H]1C [ORIZABIN XVI]
EC50 (KB): 1 µg/mL (≈ 0.892 µM)

CCCCC[C@H]1CCCCCCCCCC(=O)O[C@@H]2[C@@H](O[C@@H]3O[C@H](C)[C@@H](OC(=O)[C@@H](C)CC)[C@H](O)[C@H]3O)[C@H](C)O[C@@H](O[C@H]3[C@H](O[C@H]4[C@H](O1)O[C@H](C)[C@@H](O)[C@@H]4O)O[C@H](COC(=O)[C@H](C)[C@@H](C)O)[C@@H](O)[C@@H]3O)[C@@H]2OC(=O)[C@@H](C)CC [ORIZABIN XX]
EC50 (KB): 1 µg/mL (≈ 0.89 µM)
